According to US12577190B2, “Method for producing polyol-based esters of ketocarboxylic acids” (KetoLipix Therapeutics GmbH, priority 2019, dated 2026):

Experiments:
[1] = system: pancreatin (Panzytrat 40,000)
Description: Both media are from the company Biorelevant®, Ltd. in Great Britain. In addition, in some experiments porcine pancreas is added (Panzytrat® 40,000, Fa. Allergan).
The pancreatin is used in the form of the commercially available product Panzytrat® 40,000 from the Allergan company. The whole mixture is stirred on a hot plate at 50° C.; the course of the reaction is determined and monitored by continuously recording the acid number over time.

[2] = even if several grams are taken; cited from earlier work

cleavage by pancreatin [1] | Compound | duration of ketosis [2]
cleaved | 3-oxobutyric acid di-diglycerol ester | –
cleaved | 3-oxobutyric acid mono-diglycerol ester | –
cleaved | 3-oxobutyric acid tri-diglycerol ester | –
– | CC(O)CC(=O)O (stereo not shown) [3-hydroxybutyric acid] | three to four
